Data on two compounds can be found in US20110190249A1, “THERAPEUTIC METHODS AND USES OF SAPOGENINS AND THEIR DERIVATIVES” (PHYTOPHARM PLC, priority 2002, published 2011).

Marks after values point to notes of the source that are not given here.

The subject of assay [1] is rat primary cortical neurones. Nature of the assay: Prevention of glutamate-induced neurodegeneration (LDH release), pre-treatment. The format is cell-based. The following applies: 30 nM, given 24 h before glutamate; LDH 24 h after glutamate; control = 100. The protocol:
The objective of this study was to examine the effects of sarsasapogenin, episarsasapogenin cathylate, episarsasapogenin, epismilagenin and smilagenin on the survival of rat primary cortical neurones exposed to glutamate, which is known to induce neuro degeneration.
Rat cortical neurones were cultured for 10 days; at day 10 the medium was changed to a serum-free defined medium. On day 12, 24 hours before glutamate exposure, cultures were washed and medium was replaced with fresh medium containing positive control (β-oestradiol), test compounds (sarsasapogenin, episarsasapogenin cathylate, episarsasapogenin, epismilagenin and smilagenin) or vehicle control (DMSO, 0.25%) or diosgenin as negative control.
On day 13, cultures were exposed to glutamate. After the incubation period, the cultures were washed with and placed in fresh medium, supplemented with relevant compounds or vehicle to evaluate their protective effects, 24 h after glutamate exposure.
(§1) Neuronal cell survival was evaluated by measuring lactate dehydrogenase (LDH) activity released in the media 24 h after test compound treatment or glutamate+test compound exposure, using the CytoTox 96 non-radioactive kit and quantitated by measuring wavelength absorbance at 450 nm.
On the technique in general: Release of lactate dehydrogenase indicates damage to the cell membrane.

A further assay has as its system aged Sprague-Dawley rats. Nature of the assay: Y-maze learning and memory test in aged rats. The following applies: 18 mg kg−1 day−1 oral in food, 3 months. The format is in vivo, rat. Here is the method:
(§2) Aged Sprague-Dawley rats aged were divided into different groups, one control and groups treated for 2-3 months with either sarsasapogenin, episarsasapogenin cathylate or smilagenin (18 mg kg^−1 day^−1, n=10). A control group (n=14) of untreated young rats was also included in the study. The daily dose of drug was mixed in a minimum amount of food and was administered every morning separately to each rat.
A Y-maze apparatus was used for the learning and memory test. On the floor of each arm of the Y-maze is an array of copper rods to which electric current is applied whenever needed, with adjustable voltage. Each arm is 45 cm long and has a 15 W lamp at the end, which is turned on when needed. After 3 months drug administration, each rat was trained for 7 consecutive days, as follows. For each training session, the rat was put into one arm of the Y-maze, after two minutes rest, an electrical current was applied to the copper rods and the lamp of the clockwise arm was illuminated to indicate the non-stimulation area. If the rat went into that arm, one correct response was recorded, otherwise, one wrong response was recorded: This stimulation-response test was repeated 20 times each day, with a pause of 5 sec between each two consecutive tests. The number of correct responses following the twenty tests on the seventh day was used to express learning ability, (the higher the number the better the learning ability). The rats were then left resting for 30 days and the procedure was repeated once more. The number of correct responses of the 20 tests after the 30 day rest period was used to represent the memory ability

Assay [2] concerns muscarinic acetylcholine receptor. Nature of the assay: Brain muscarinic acetylcholine receptor density in aged rats (dual-site competitive ligand binding). Format: in vivo, rat. Conditions: 18 mg kg−1 day−1 oral, 2-3 months. Here is the method: as §2
Muscarinic acetylcholine receptor density in the brain was measured. Tissue was prepared as follows: brains were removed quickly after decapitation, frozen in dry ice, and transferred to a freezer. The brains were homogenised and the pellet was finally suspended in buffer.
The dual-site competitive ligand binding assay was used to measure muscarinic acetylcholine receptor density.

The test system is the same in assay [3]. Briefly: Brain M receptor density (3H-QNB) in amyloid β + ibotenic acid rat model. The format is in vivo. The following applies: 18 mg/kg/day gastric tube, two months; model 713 ± 48, control 859 ± 101. Here is the method:
(§3) An in vivo model of Alzheimer's disease was used to model neurodegeneration. In this model the neurotoxic agents (amyloid β and ibotenic acid) are injected into the brain of the rat. This leads to neuronal loss, receptor loss and cognitive impairment. […] In addition the co-injection of amyloid β with a small amount of ibotenic acid into the rat hippocampus synergistically produces neuronal loss with infiltration of glial cells not only adjacent but also far from the injected site (Morimoto et al., 1998: Neuroscience, 84, 479-487).
(§4) Our studies used the method of Morimoto (Morimoto et al., 1998: Neuroscience, 84, 479-487) with some modifications (unilateral instead of bilateral injection). Three months old, Sprague Dawley rats, were randomly divided into different groups. Injection of amyloid β1-40 and ibotenic acid (both from Sigma) was accomplished by means of a stereotaxic instrument (Stoelting Co.) and the coordinates were AP=−0.5 mm […], L=−2.8 mm […], H=−7.0 mm (ventral to dura). The dose for each rat was amyloid β1-40 (4 μg) and ibotenic acid (1 μg) in 1 μl of saline. The injection was completed in 20 min, and the needle was withdrawn 10 min later. Then the skin was sutured.
(§5) The 8 groups were: • Operated control injected with normal saline (control) • Model (control injected with amyloid β+ibotenic acid) • Model+Episarsasapogenin cathylate (18 mg/kg/day)* • Model+Sarsasapogenin cathylate (18 mg/kg/day)* • Model+Episarsasapogenin ethylsuccinate (18 mg/kg/day) (comparison) • Model+Episarsasapogenin (18 mg/kg/day)* • Model+Epismilagenin (18 mg/kg/day)* • Model+Diosgenin (i.e. negative control, 18 mg/kg/day)
(§6) Episarsasapogenin cathylate, sarsasapogenin cathylate, episarsasapogenin ethylsuccinate (comparison compound), episarsasapogenin, epismilagenin and diosgenin (all at a dosage of 18 mg/kg/day) were administered to animals as stable suspensions in CMC—Na (0.5%) once daily through a gastric tube. The control and the model group were given the same volume of CMC—Na (0.5%) once daily. The drugs and vehicles were given for a period of two months, starting 20 days before operation.
Muscarinic acetylcholine receptor density was assessed. The brain samples were homogenised, centrifuged, and the pellet of centrifugation at 27000×g was re-homogenised and used for measurement. The concentration of ^3H-QNB was chosen at the saturation range. After incubation and separation, the bound portion was measured by liquid scintillation counter.

Assay [4] has as its system Sprague Dawley rats injected with amyloid β1-40 and ibotenic acid. Nature of the assay: Step-through test in amyloid β + ibotenic acid rat model. Format: in vivo. The following applies: 18 mg/kg/day gastric tube, two months; errors in 5 min; model 4.00 ± 2.40, control 0.60 ± 0.70. Here is the method: as §3, §4, §5, §6
Step-Through Test: learning and memory. The effect of test compounds on learning and memory was assessed using the step-through test. A 60×15×15 cm box, divided into 2 equally sized rooms, one dark room with copper rod base, which was electrically charged (40 V ac) when in use, while the other was a light room but not electrically charged. Between the two rooms there is an opening (hole) for the rat to go through. The experiment is carried out for each rat on two consecutive days. The first day is for training; when the rat is adapted in the box for the first 3 min, then put in the light room, with its back toward the hole, and the copper rods of the dark room are charged for 5 min. The second day is for testing, when the number of crosses in 5 min are recorded. Improvements in memory are signalled by a reduction in the number of crosses.

In assay [5] the test system is rat primary cortical neurones. Briefly: Reversal of glutamate-induced neurodegeneration (LDH), treatment after glutamate exposure. Format: cell-based. The following applies: LDH after 24 h, control = 100. Here is the method: as §1
As above mentioned, exposure of rat primary cortical cultures to glutamate (100 μM; 10 min) caused an increase in lactate dehydrogenase (LDH) activity measured after 24 h, indicating a significant neurodegeneration.

Assay [6] concerns rat primary cortical neurones. Briefly: Neurite outgrowth in rat primary cortical neurones. Format: cell-based. The following applies: for Number of neurones displaying neurites, Mean ± s.e.m (%): control 47 ± 2; for Neurite length measured using optical micrometry, Mean ± s.e.m (%): control 100 ± 4. The source says: Neurodegenerative disorders are characterised by a progressive loss of neurones and degradation of neuronal processes (neurites). Agents that induce neurite outgrowth may promote the formation of new connections between neurones and ameliorate the symptoms of neurodegenerative conditions (Katzman et al, Faseb J., 5, 278-286, 1991).

The test system of assay [7] is rat mesencephalic dopaminergic neurones. Nature of the assay: Pre-treatment of dopaminergic neurones before MPP+ exposure (neuronal survival). The format is cell-based. The following applies: pre-treatment 30 nM; MPP+ 2 μM; MPP+ alone 55 ± 3. The text has this: Smilagenin and sarsasapogenin prevent the neurodegeneration caused by exposure to the neurotoxin, 1-methyl-4-phenylpyridinium (MPP^+) in rat mesencephalic dopaminergic neurones; a model of Parkinson's disease in vitro.
Glial cell line-derived neurotrophic factor (GDNF) and brain-derived neurotrophic factor (BDNF), molecules that are involved in neuronal growth, were used as positive controls.

For assay [8] the test system is unchanged. Briefly: Treatment of dopaminergic neurones after MPP+ exposure (survival, neurites). The following applies: MPP+ 2 μM. The format is cell-based. The text has this: Smilagenin and sarsasapogenin also reverse the neurodegeneration caused by exposure to the neurotoxin 1-methyl-4-phenylpyridinium (MPP^+) in rat mesencephalic dopaminergic neurones; a model of Parkinson's disease in vitro.
Glial cell line-derived neurotrophic factor (GDNF) and brain-derived neurotrophic factor (BDNF), molecules that are involved in neuronal growth, and 17β-oestradiol were used as positive controls. Treatment with smilagenin and sarsasapogenin produced a significant increase in the neuronal survival compared to neurones exposed to MPP^+ alone (Table 8).
Exposure to MPP^+ caused not only a significant decrease in dopaminergic number but also in the percentage of neurites.

Assay [9] concerns rat primary spinal motor neurones. Nature of the assay: Glutamate-induced neurodegeneration in spinal motor neurones (LDH). The format is cell-based. Conditions: control 100 ± 1. The protocol: The objective of this study was to examine the effects of sarsasapogenin and smilagenin on the survival of rat primary spinal motor neurones exposed to glutamate, which is known to induce neurodegeneration in this model of motor neurodegeneration.
Rat motor neurones were prepared according to the method described by (Martinou et al, Neuron, 8, 737-744, 1992). On day 10, medium was removed and the cultures were exposed to glutamate (4 microM) for 10 min at 37° C. in defined medium. After the glutamate exposure, cultures were washed with Dulbecco modified Eagle medium at 37° C. then placed in fresh culture medium containing test compounds. After 48 h, the extent of spinal motor neurone degeneration was determined by measuring the amount of lactate dehydrogenase (LDH) released into the culture medium as above.

The subject of a further assay is dopamine (D) 1 receptor. Nature of the assay: Dopamine D1 receptor density in aged rats. The format is in vivo, rat. Conditions: aged rats treated 3 months; aged untreated 129.2±36.8, young 157.5±33.2. Here is the method: as §2
(§7) By contrast, smilagenin and sarsasapogenin treatment in aged rats for 3 months restored the D1 and D2 receptor density (smilagenin 177±10.9; 217±45.7 fmol/mg protein; sarsasapogenin 172.0±44.0; 206.4±60.5 respectively).

A further assay relates to dopamine (D) 2 receptor. Briefly: Dopamine D2 receptor density in aged rats. Format: in vivo, rat. The following applies: aged rats treated 3 months; aged untreated 153.8±40.5, young 200.6±50.9. Here is the method: as §2, §7
Another assay relates to BDNF. Briefly: BDNF levels in aged rats. Format: in vivo, rat. Conditions: aged rats treated 3 months; aged untreated 1.205±0.219, young 1.647±0.277. The protocol:
as §2

For assay [10], the system named is progressive motor neuropathy (pmn) mice. Nature of the assay: Survival and behaviour of pmn mice (Charcot-Marie-Tooth model). Conditions: pmn mouse. Format: in vivo. The text has this:
Amyotrophic lateral sclerosis (ALS) is a progressive fatal neurodegenerative disorder that causes motor neurone degeneration, […], paralysis and death. The cause of this disease is heterogeneous: mutations in the Cu/Zn superoxide dismutase (SOD-1) gene is responsible for some forms of human ALS. Animal models of this disease include the SOD-1 transgenic mice over-expressing SOD-1 gene and the progressive motor neuropathy (pmn, a model of Charcot-Marie-Tooth) mice.

Regarding `CCOC(=O)O[C@@H]1CC[C@@]2(C)[C@H](CC[C@@H]3[C@@H]2CC[C@]2(C)[C@@H]4[C@H](C[C@@H]32)O[C@]2(CC[C@H](C)CO2)[C@H]4C)C1` [episarsasapogenin cathylate], the “Prevention of glutamate-induced neurodegeneration, Mean ± s.e.m (%)” value in assay [1] was found to be 74 ± 3%. In the assay with aged Sprague-Dawley rats, the “Learning and memory ability (Y-maze)” value was “restored the learning and memory ability”. Further, in [2], the “Muscarinic acetylcholine receptor density in brain” value is given as “significantly restored”. Besides, the M receptor density in assay [3] is given as 877 ± 89* fmol/mg/protein. Also, the “Learning and memory Step through test Error No” value in [4] is on record as 1.36 ± 0.92*.

Regarding `C[C@H]1CC[C@@]2(OC1)O[C@H]1C[C@H]3[C@@H]4CC[C@@H]5C[C@@H](O)CC[C@]5(C)[C@H]4CC[C@]3(C)[C@H]1[C@@H]2C` [sarsasapogenin], the “Prevention of glutamate-induced neurodegeneration, Mean ± s.e.m (%)” value in assay [1] amounted to 79 ± 3%. Besides, the “Cortical neurones previously exposed to glutamate, Mean ± s.e.m (%)” value in assay [5] (3 nM after glutamate 100 μM 10 min) is on record as 101 ± 3%; in assay [5] (30 nM after glutamate 100 μM 10 min), 112 ± 1%. For the same compound, the “Number of neurones displaying neurites, Mean ± s.e.m (%)” value is 55 ± 2% in [6] (0.3 pM), 61 ± 1% in assay [6] (3 pM) and 62 ± 2% in [6] (30 pM). Moreover, the “Neurite length measured using optical micrometry, Mean ± s.e.m (%)” value is reported as 177 ± 5% in assay [6] (0.3 pM), 197 ± 5% in [6] (3 pM) and 211 ± 6% in assay [6] (30 pM). The “Dopaminergic neurones after MPP+ exposure (survival), Mean ± s.e.m (%)” value in assay [7] is listed as 89 ± 3%; in [8] (treatment 0.03 nM, MPP+ alone 76 ± 4), 112 ± 6%. Also, the “Percentage of neurites in dopaminergic neurones after MPP+ exposure, Mean ± s.e.m (%)” value in [8] (0.03 nM, control 41 ± 4, MPP+ alone 27 ± 5) stood at 43 ± 4%. Also, the “Glutamate-induced neurodegeneration in spinal motor neurones, Mean ± s.e.m (%)” value came out at 123 ± 2% in [9] (0.03 nM for 48 h after glutamate 4 microM 10 min), 137 ± 1% in [9] (3 nM for 48 h after glutamate 4 microM 10 min) and 136 ± 6% in assay [9] (300 nM for 48 h after glutamate 4 microM 10 min). In the assay with aged Sprague-Dawley rats, the “Learning and memory ability (Y-maze)” value was “restored the learning and memory ability”. Also, the “Muscarinic acetylcholine receptor density in brain” value in assay [2] was “significantly restored”. In the assay with dopamine (D) 1 receptor, this compound displayed a D1 receptor density of 172.0±44.0 fmol/mg protein. The D2 receptor density in the assay on dopamine (D) 2 receptor turned out to be 206.4±60.5 fmol/mg protein. In the assay with BDNF, the BDNF levels amounted to 1.410±0.232 ng/g tissue. In assay [10] (oral administration), the Behavioural deficits result is on record as “improve the behavioural deficits”. Moreover, the “Lifespan (survival)” value in assay [10] (oral administration (FIG. 6)) is on record as “increase the lifespan”.
